This is an account of results in US7022718B2, “Pyridine and pyrimidine derivatives” (Hoffmann-La Roche Inc., priority 2002, dated 2006).

One test deals with human DPP-IV (Homo sapiens, UniProt P27487). The experiment in a line: DPP-IV activity assay (fluorometric / colorimetric), IC50 determination.
human DPP-IV, sequence (P27487 31-766): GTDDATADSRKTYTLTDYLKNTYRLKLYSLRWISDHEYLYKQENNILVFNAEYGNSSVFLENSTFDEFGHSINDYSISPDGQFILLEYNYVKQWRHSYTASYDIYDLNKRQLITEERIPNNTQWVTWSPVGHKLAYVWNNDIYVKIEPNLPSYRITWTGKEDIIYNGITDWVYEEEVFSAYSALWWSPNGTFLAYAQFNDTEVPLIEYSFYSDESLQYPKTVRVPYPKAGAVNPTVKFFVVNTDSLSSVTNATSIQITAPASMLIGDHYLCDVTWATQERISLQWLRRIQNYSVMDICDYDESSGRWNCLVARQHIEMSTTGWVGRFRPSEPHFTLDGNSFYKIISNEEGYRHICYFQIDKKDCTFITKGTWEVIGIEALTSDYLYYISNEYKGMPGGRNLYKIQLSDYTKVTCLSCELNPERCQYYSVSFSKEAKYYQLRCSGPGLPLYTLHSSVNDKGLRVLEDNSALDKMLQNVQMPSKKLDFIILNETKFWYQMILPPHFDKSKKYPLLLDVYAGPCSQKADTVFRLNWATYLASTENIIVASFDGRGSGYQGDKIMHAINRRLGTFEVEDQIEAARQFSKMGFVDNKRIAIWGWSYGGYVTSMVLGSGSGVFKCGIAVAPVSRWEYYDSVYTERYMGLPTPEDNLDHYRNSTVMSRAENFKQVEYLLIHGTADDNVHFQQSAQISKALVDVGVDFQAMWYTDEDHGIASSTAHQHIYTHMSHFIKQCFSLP
Conditions: not given
A word on the IC50: it is the concentration at which inhibition is half-maximal. `Cc1ccc(-c2nc(-c3ccccc3)nc(N)c2CN)c(C)c1` [Example 11, 5-Aminomethyl-6-(2,4-dimethyl-phenyl)-2-phenyl-pyrimidin-4-ylamine] yielded an IC50 of 172 nM.
Same read-out and setting: for `NCc1c(N)nc(-c2cc3ccccc3o2)nc1-c1ccc(Cl)cc1Cl` [Example 16, 5-Aminomethyl-2-benzofuran-2-yl-6-(2,4-dichloro-phenyl)-pyrimidin-4-ylamine] the value was 0.7 nM; for `NCc1c(N)nc(N2CCCCCC2)nc1-c1ccc(Cl)cc1Cl` [Example 20, 5-Aminomethyl-2-azepan-1-yl-6-(2,4-dichloro-phenyl)-pyrimidin-4-ylamine], 3 nM.
On to `CSc1nc(N)c(CN)c(-c2ccc(Cl)cc2Cl)n1` [Example 23, 5-Aminomethyl-6-(2,4-dichloro-phenyl)-2-methylsulfanyl-pyrimidin-4-ylamine], for which the IC50 stood at 13 nM.
The same measure, in the same setting: in the case of `CCc1ccc(-c2nc(-c3ccccc3)nc(N)c2CN)cc1` [Example 43, 5-Aminomethyl-6-(4-ethyl-phenyl)-2-phenyl-pyrimidin-4-ylamine] it was 389 nM; in that of `CNCc1c(N)nc(-c2ccccc2)nc1-c1ccc(Cl)cc1Cl` [Example 76, 6-(2,4-Dichloro-phenyl)-5-methylaminomethyl-2-phenyl-pyrimidin-4-ylamine], 391 nM; in that of `Cc1c(-c2ccccc2)nc(N)c(CN)c1-c1ccc(Cl)cc1Cl` [Example 79, 3-Aminomethyl-4-(2,4-dichloro-phenyl)-5-methyl-6-phenyl-pyridin-2-ylamine], 873 nM.

Staying with this test, now noted: natural human DPP-IV from human plasma pool or recombinant human DPP-IV; 37° C., pH 7.8.
As to `NCc1c(N)nc(-c2cccc(F)c2)nc1-c1ccc(Cl)cc1Cl` [Example 13, 5-Aminomethyl-6-(2,4-dichloro-phenyl)-2-(3-fluoro-phenyl)-pyrimidin-4-ylamine], the 50% inhibitory concentration (IC50) worked out at 0.2 nM.
